Measured values reported in ChEMBL document CHEMBL3508140 (2016).

Legend:
[1] = Plasma clearance of epirubicin following intravenous epirubicin solution at 1 mg.Kg-1 dose in rabbit; type: ADME, organism-based, Oryctolagus cuniculus, Blood; details: both, New Zealand White
[2] = Detection of epirubicin in heart following single intravenous epirubicin at 10 mg.Kg-1 dose in female mouse bearing colon tumor; type: ADME, organism-based, BALB/c; details: in vivo
[3] = Half-life of terminal elimination phase of epirubicin following intravenous epirubicin at 40-135 mg.m-2 dose in cancer patients; type: ADME, organism-based; details: human, plasma
[4] = Volume of distribution of epirubicin following intravenous epirubicin solution at 1 mg.Kg-1 dose in rabbit; type: ADME, organism-based, Oryctolagus cuniculus; details: both, New Zealand White, blood
[5] = AUC of epirubicin following intravenous epirubicin at 1 mg.Kg-1 dose in rabbit; type: ADME, organism-based, Oryctolagus cuniculus; details: both, New Zealand White, plasma
[6] = Mean residence time (MRT) of epirubicin following intrahepatic epirubicin solution at 1 mg.Kg-1 dose in rabbit; type: ADME, organism-based, Oryctolagus cuniculus; details: both, New Zealand White, blood, read-out: Mean residence time (converted)
[7] = Recovery of epirubicin following intravenous epirubicin at 1.5 mg.Kg-1 dose in man; type: ADME, organism-based, Plasma; details: human, in vivo
[8] = Plasma clearance of epirubicin following intravenous epirubicin at 40-60 mg.m-2 dose in cancer patients; type: ADME, organism-based; details: human, in vivo
[9] = Half-life of epirubicin in tumor following single intravenous epirubicin at 10 mg.Kg-1 dose in female mouse bearing colon tumor; type: ADME, organism-based, Neoplasm; details: BALB/c
[10] = AUC of epirubicin following intravenous epirubicin solution at 1 mg.Kg-1 dose in rabbit; type: ADME, organism-based, Oryctolagus cuniculus; details: both, New Zealand White, blood
[11] = Mortality occurred following reference intravenous epirubicin at 1 mg.Kg-1 per week in rat; type: toxicity, organism-based, SD; details: in vivo
[12] = Plasma clearance of epirubicin following intravenous epirubicin at 20 mg.m-2 dose in cancer patients; type: ADME, organism-based; details: human, in vivo
[13] = Increase in serum total cholesterol level following reference intravenous epirubicin at 1 mg.Kg-1 per week in rat; type: toxicity, organism-based, SD; details: in vivo
[14] = Half-life of terminal elimination phase of epirubicin following intravenous epirubicin at 90-150 mg.m-2 dose in cancer patients; type: ADME, organism-based; details: human, plasma
[15] = Mean estimated half-life of epirubicin following intravenous epirubicin at 1 mg.Kg-1 dose administered approximately 25 minute prior to epirubicin once weekly for four weeks in dog; type: ADME, organism-based, Canis lupus familiaris; details: Beagle, plasma
[16] = Biliary excretion of epirubicin following epirubicin at 50 mg.m-2 dose in cancer patients; type: ADME, organism-based; details: human, bile, at 50 mg/m2, read-out: Compound recovery
[17] = Terminal half-life of epirubicin following intravenous epirubicin solution at 1 mg.Kg-1 dose in rabbit; type: ADME, organism-based, Oryctolagus cuniculus; details: both, New Zealand White, blood
[18] = Initial phase half-life of epirubicin following intravenous epirubicin at 70 mg.m-2 dose in cancer patients; type: ADME, organism-based, Plasma; details: human, in vivo
[19] = Volume of distribution of epirubicin following intravenous epirubicin at 1 mg.Kg-1 dose in rabbit; type: ADME, organism-based, Oryctolagus cuniculus; details: both, New Zealand White, plasma
[20] = (§1) Terminal half-life of epirubicinol following intravenous epirubicin at 3 mg.Kg-1 dose in rabbit; type: ADME, organism-based, Oryctolagus cuniculus, New Zealand White, Plasma; details: in vivo
[21] = Mean residence time (MRT) of epirubicin following intrahepatic epirubicin emulsion at 1 mg.Kg-1 dose in rabbit; type: ADME, organism-based, Oryctolagus cuniculus; details: both, New Zealand White, blood, read-out: Mean residence time (converted)
[22] = Terminal half-life of epirubicin following intravenous epirubicin emulsion at 1 mg.Kg-1 dose in rabbit; type: ADME, organism-based, Oryctolagus cuniculus; details: both, New Zealand White, blood
[23] = Volume of distribution as steady state of epirubicin following intravenous epirubicin at 40-60 mg.m-2 dose in cancer patients; type: ADME, organism-based, Plasma; details: human, in vivo
[24] = Half-life of epirubicin in heart following single intravenous epirubicin at 10 mg.Kg-1 dose in female mouse bearing colon tumor; type: ADME, organism-based; details: BALB/c
[25] = Cumulative urinary excretion of epirubicin and its metabolites following epirubicin at 75-90 mg.m-2 dose in cancer patients; type: ADME, organism-based, Urine; details: human, in vivo
[26] = Cumulative urinary excretion of epirubicin and its metabolites following epirubicin at 50 mg.m-2 dose in cancer patients; type: ADME, organism-based, Urine; details: human, in vivo; at 50 mg/m2
[27] = Mean residence time (MRT) of epirubicin following intravenous epirubicin emulsion at 1 mg.Kg-1 dose in rabbit; type: ADME, organism-based, Oryctolagus cuniculus; details: both, New Zealand White, blood, read-out: Mean residence time (converted)
[28] = Terminal half-life of epirubicin following intrahepatic epirubicin emulsion at 1 mg.Kg-1 dose in rabbit; type: ADME, organism-based, Oryctolagus cuniculus; details: both, New Zealand White, blood
[29] = Urinary elimination of 4'-epiadriamycin following intravenous bolus 4'-epiadriamycin at 10 mg.Kg-1 dose in rat; type: ADME, organism-based; details: SD, urine, read-out: Compound recovery
[30] = Volume of distribution of epirubicin following intrahepatic epirubicin solution at 1 mg.Kg-1 dose in rabbit; type: ADME, organism-based, Oryctolagus cuniculus; details: both, New Zealand White, blood
[31] = Urinary excretion of epirubicin following epirubicin at 50 mg.m-2 dose in cancer patients; type: ADME, organism-based; details: human, urine, at 50 mg/m2, read-out: Compound recovery
[32] = Terminal half-life of epirubicinol following intravenous epirubicin at 1 mg.Kg-1 dose in rabbit; type: ADME, organism-based, Oryctolagus cuniculus, New Zealand White, Plasma; details: in vivo
[33] = Plasma clearance of epirubicin following intravenous epirubicin at 70 mg.m-2 dose in cancer patients; type: ADME, organism-based; details: human, in vivo
[34] = AUC of epirubicin following intravenous epirubicin at 3 mg.Kg-1 dose in rabbit; type: ADME, organism-based, Oryctolagus cuniculus; details: both, New Zealand White, plasma
[35] = Initial phase half-life of epirubicin following intravenous epirubicin at 60 mg.m-2 dose in cancer patients; type: ADME, organism-based, Plasma; details: human, in vivo
[36] = Mean plasma clearance of epirubicin following intravenous epirubicin at 150 mg.m-2 dose in advanced cancer patients; type: ADME, organism-based; details: human, read-out: CLp (converted)
[37] = Plasma clearance of epirubicin following intravenous epirubicin at 90-150 mg.m-2 dose in cancer patients; type: ADME, organism-based; details: human, in vivo
[38] = Volume of distribution of 4'-epiadriamycin intravenous 4'-epiadriamycin at 1.27 mg.Kg-1 dose in dog; type: ADME, organism-based, Canis lupus familiaris; details: Beagle, plasma
[39] = Volume of distribution at steady state following epirubicin at 60 mg.m-2 dose in patients with cancer; type: ADME, organism-based; details: human, plasma, read-out: Vss
[40] = Mean residence time (MRT) of epirubicin following intravenous epirubicin solution at 1 mg.Kg-1 dose in rabbit; type: ADME, organism-based, Oryctolagus cuniculus; details: both, New Zealand White, blood, read-out: Mean residence time (converted)
[41] = Half-life of terminal elimination phase of epirubicin following intravenous epirubicin at 75 mg.m-2 dose in cancer patients; type: ADME, organism-based; details: human, plasma
[42] = Half-life of terminal elimination phase of epirubicin following intravenous epirubicin at 20 mg.m-2 dose in cancer patients; type: ADME, organism-based; details: human, plasma
[43] = as §1; type: ADME, organism-based, Oryctolagus cuniculus, New Zealand White, Plasma; details: in vivo; remark: listed apart in the source
[44] = Plasma clearance of epirubicin following intravenous epirubicin at 30-90 mg.m-2 dose in cancer patients; type: ADME, organism-based; details: human, in vivo
[45] = Plasma clearance of epirubicin following intravenous epirubicin at 3 mg.Kg-1 dose in rabbit; type: ADME, organism-based, Oryctolagus cuniculus; details: both, New Zealand White
[46] = Volume of distribution at steady state following intravenous epirubicin at 150 mg.m-2 dose in patients with advanced cancer; type: ADME, organism-based; details: human, plasma, read-out: Vss
[47] = Terminal half-life of epirubicin following intravenous epirubicin at 1 mg.Kg-1 dose in rabbit; type: ADME, organism-based, Oryctolagus cuniculus; details: both, New Zealand White, plasma
[48] = Plasma clearance of 4'-epiadriamycin following intravenous 4'-epiadriamycin at 1.27 mg.Kg-1 dose in dog; type: ADME, organism-based, Canis lupus familiaris; details: Beagle, read-out: Clp
[49] = Urinary excretion of epirubicin following epirubicin at 60 mg.m-2 dose in cancer patients; type: ADME, organism-based; details: human, urine, at 60 mg/m2, read-out: Compound recovery
[50] = Recovery of epirubicin following intraperitoneal epirubicin at 4 mg.Kg-1 dose in hamster; type: ADME, organism-based, Cricetulus griseus, Plasma; details: chinese hamster, in vivo, ip
[51] = Volume of distribution as steady state of epirubicin following intravenous epirubicin at 40-135 mg.m-2 dose in cancer patients; type: ADME, organism-based, Plasma; details: human, in vivo

With `COc1cccc2c1C(=O)c1c(O)c3c(c(O)c1C2=O)C[C@@](O)(C(=O)CO)C[C@@H]3O[C@H]1C[C@H](N)[C@@H](O)[C@H](C)O1.Cl` [EPIRUBICIN HYDROCHLORIDE] the clearance [1] was 813 mL/min, the Compound recovery [2] was “OUTCOME = Observed” and the half-life [3] was 20.6 h. It also gave a Vd [4] of 30.9 L/kg, an AUC [5] of 420 ng·h/mL and an MRT [6] of 1.38 h. For the same compound, the Compound recovery [7] was 46 10^-9M, the CLp [8] was 50.1 L.h-1.m-2 and the half-life [9] was 24.7 h. The AUC [10] was 180 ng·h/mL, the Mortality [11] was “OUTCOME = Observed, N_AFFECTED = 5” and the CLp [12] was 71.5 L.h-1.m-2. The CHOL_CHANGE [13] was “OUTCOME = Increased”, the half-life [14] was 42 h and the half-life [15] was 51.1 h. It also gave a dose excreted at 96 h [16] of 21.9%, a half-life [17] of 1.06 h and a t1/2 [18] of 3.15 min. For the same compound, the Vd [19] was 368 L/kg, the t1/2 [20] was 1.66 h and the MRT [21] was 1.11 h. It also gave a half-life [22] of 0.628 h, a Vss [23] of 592 L.m-2 and a half-life [24] of 10.6 h. For the same compound, the Radiolabel recovery [25] was 10.7%, the Radiolabel recovery [26] was 10.5% and the MRT [27] was 0.835 h. For the same compound, the half-life [28] was 0.868 h, the dose excreted [29] was 2.43% and the Vd [30] was 129 L/kg. The dose excreted at 48 h [31] was 6.2%, the dose excreted at 96 h [31] was 9.6% and the t1/2 [32] was 0.63 h. The CLp [33] was 84.2 L.h-1.m-2, the AUC [34] was 620 ng·h/mL and the t1/2 [35] was 2.92 min. For the same compound, the clearance [36] was 1130 mL/min, the CLp [37] was 48 L.h-1.m-2 and the Vd [38] was 71.9 L/kg. It also gave a Vd [39] of 32 L/kg, an MRT [40] of 1.26 h and a half-life [41] of 44.8 h. The half-life [42] was 13.9 h, the t1/2 [43] was 33.94 h and the CLp [44] was 48 L.h-1.m-2. It also gave a clearance [45] of 323 mL/min, a Vd [46] of 21 L/kg and a half-life [47] of 22.9 h. For the same compound, the clearance [48] was 589 mL/min, the dose excreted at 168 h [49] was 6.4% and the Compound recovery [50] was 83 10^-9M. The Vss [51] was 836 L.m-2.
